Source: patent US20130143869A1, “USE OF A CATIONIC AMPHIPHILIC DRUG FOR THE PREPARATION OF A FORMULATION FOR THE REDUCTION OF SUBCUTANEOUS ADIPOSE TISSUE” (Merz Pharma GmbH & CO. KGaA, priority 2010, published 2013)
Where a name gives a salt, the structure may show the parent alone. Read-outs that look alike come from different tables or passages of the source.

Legend:
[1] = system: Human white adipocytes; assay: Apoptosis/necrosis detection, Annexin V-FITC/PI flow cytometry; format: cell-based; conditions: for apoptosis/necrosis induction in human adipocytes (in words): 5, 24, 48 hrs, concentrations as in Table 4
From the text: The apoptotic program is characterized by certain morphologic features. Loss of plasma membrane asymmetry is a well established indicator for apoptotic cells. In apoptotic cells, the membrane phospholipid phosphatidylserine (PS) is translocated from the inner to the outer leaflet of the plasma membrane, thereby exposing PS to the external environment. In general, this PS translocation is preceded by caspase activation. Annexin V labelled with FITC is a Ca^2+ dependent phospholipid-binding protein with high affinity for PS and binds to cells with externalized PS. Cells stained with Annexin V*FITC are therefore considered in an early apoptotic stage.
Staining with Annexin V-FITC is typically used in conjunction with a vital dye such as propidium iodide (PI) to allow discrimination between early apoptotic and necrotic cells. Necrotic dying cells are PI positive only. Cells that are viable are Annexin V and PI negative; cells that entered apoptosis are Annexin V positive and PI negative and cells that are in post apoptotic and/or necrotic phase are both Annexin V and PI positive.
Human white adipocytes that had been differentiated in vitro from pre-adipocytes as describe above were used. Measurements were performed after 5 hrs to catch early apoptotic/necrotic events and after 24 hrs and 48 hrs for later stages. Naringenin at 500 μM (reported to induce apoptosis in adipocytes) was used as positive control and media plus solvent was used as negative control. Each compound was tested in three different concentrations. […] Two more concentrations, one below and one above the IC50 were added.
Flow cytometry was performed with a dual laser FC500. After completion of the staining procedure, tubes were grouped into a FC500 carousel for semi-automated data acquisition. Cells were first acquired in “Setup” mode to tune the parameters FS, SS, FL1 and FL2. After completion of the setup, baseline compensation was switched on and cells were acquired. Cells were acquired without life-gate but using FS threshold to exclude debris. All cells were acquired using individually corrected settings.
After completion of data acquisition, analysis was done using the CXP software. If necessary, software-based post acquisition compensation was performed to fine-correct for fluorescence overlap not adjusted for during the acquisition phase. Quadrant markers were set based on the negative controls.

[2] = system: human adipocyte cells; assay: Membrane integrity: LDH release from human adipocytes (LDH assay); format: cell-based; conditions: Example 1, 48 hrs, relative to Triton-x 100 maximal LDH release
Protocol: (§1) HWP were obtained in passage two and differentiated in vitro to mature adipocytes. Briefly, cells were initially cultured in preadipocyte growth medium at 37° C. and 5% CO2 to 70-80% confluency. Then, cells were seeded at 40,000 cells/ml into 96-well flat bottom tissue culture plates and incubated overnight to allow attachment. Differentiation was initiated by changing the medium to preadipopcyte differentiation medium for an additional 72 hrs. After differentiation was induced, the medium was replaced by adipocyte nutrition medium that was refreshed every 2-3 days over a period of 14 days until termination of differentiation. Differentiation status was checked via nile red staining of control cells.
(§2) For the cytotoxicity assays in this study pre-adipocytes were seeded at 40,000 cells/ml into a 96-well microtiter flat bottom plate. The test items were prepared in separate plates starting with the double concentrated maximal test concentration followed by a 1:2 serial dilution (Chloroquine and Fluoxetine 1:3) and then added to the cells. The test items were tested at 6 replicates/concentration. Each plate included negative controls (media plus solvent, 6 replicates), a drug interference control (all concentrations, duplicates), a background control (14 replicates), a positive (=cytotoxic) control (6 replicates doxorubicin, 1 μM final) and a positive control for maximal LDH-release (2 replicates, 2% Triton-x 100 final).
(§3) Relative cell viability was determined after 48 hrs exposure based on metabolic activity (i.e. resazurin conversion). Using a Victor^3 1420 Multilabel Counter, the resazurin conversion to the fluorescent resorufin by metabolically active cells was recorded at 560Ex/590Em. Membrane integrity was measured after 6 hrs and 48 hrs and the enzymatic activity of released LDH in the cell supernatant after 30 min of incubation at 492 nmabsorption/690 nmreference by a spectrophotometer. The volume withdrawn from the cultures for the LDH-assay was not replaced to keep cells in a less disturbed environment. The assay was conducted in a multiplexed format.
For the dose-response relationship, absolute absorption (OD treated wells−background) was plotted against the test item concentrations representing LDH leakage from the cells. For a better estimation of the test items' potential influencing the membrane integrity, relative, maximal LDH release in percent (see Table 2) was also calculated according to the following formula: […]
(§4) The effects on cytotoxicity in human adipocyte cells of a further 9 compounds were tested. The experimental set-up was identical to the one in example 1.

[3] = system: human adipocyte cells; assay: Cytotoxicity assay: metabolic activity (resazurin conversion) of human adipocytes; format: cell-based; conditions: read-out: IC50 (metabolic activity after 48 hrs), Example 1, 48 hrs exposure, resazurin
Protocol: as §1
(§5) The test items 1 to 8 were prepared according to Table 1 to yield respective stock solutions. Said stock solutions were further diluted in assay media to obtain the double concentrated working solutions, which were subsequently diluted 1:2 in the final assay. […] Deoxycholate Na was selected as “reference compound”.
as §2, §3
In order to derive meaningful IC50 values from the primary data, the entire biological window of activity ranging from 0% to 100% viability should be covered and the resolution has to be sufficient. To improve data quality, the serial dilution factor used in previous experiments was reduced to a 1:2 and 1:3 dilution. […] IC50 (half maximal inhibitory concentration, calculated via Sigma Plot 10) values were determined for each test substance 1 to 8.
as §4

[4] = system: subcutaneous fat-tissue; conditions: rats
[5] = Precipitation of test item in cytotoxicity assay media; format: physicochemical; conditions: above 500 μM
Protocol: as §5

[6] = 1 mg/mL, 300 μL s.c. Day 1, 7, 28, histology day 29

SMILES	primary mode of cell death [1]	Early Apoptosis [A-V*/PI*] ([1]; 60 μM, 5 hrs)	Necrosis/ Late Apoptosis [A-V*/PI*] ([1]; 60 μM, 5 hrs)	Normal [A-V*/PI] ([1]; 60 μM, 5 hrs)	Early Apoptosis [A-V*/PI*] ([1]; 60 μM, 24 hrs)	Necrosis/ Late Apoptosis [A-V*/PI*] ([1]; 60 μM, 24 hrs)	Normal [A-V*/PI] ([1]; 60 μM, 24 hrs)	Early Apoptosis [A-V*/PI*] ([1]; 60 μM, 48 hrs)	Necrosis/ Late Apoptosis [A-V*/PI*] ([1]; 60 μM, 48 hrs)	Normal [A-V*/PI] ([1]; 60 μM, 48 hrs)	Necrosis/ Late Apoptosis [A-V*/PI*] ([1]; 80 μM, 5 hrs)	Normal [A-V*/PI] ([1]; 80 μM, 5 hrs)	Early Apoptosis [A-V*/PI*] ([1]; 80 μM, 24 hrs)	Necrosis/ Late Apoptosis [A-V*/PI*] ([1]; 80 μM, 24 hrs)	Normal [A-V*/PI] ([1]; 80 μM, 24 hrs)	Necrosis/ Late Apoptosis [A-V*/PI*] ([1]; 80 μM, 48 hrs)	Normal [A-V*/PI] ([1]; 80 μM, 48 hrs)	apoptosis/necrosis induction in human adipocytes (in words) [1]	Rel. max. LDH release [%] 48 hrs [2]	also measured
CNCCC(Oc1ccc(C(F)(F)F)cc1)c1ccccc1 (stereo not shown) [Test substance 4, Fluoxetine HCl]	fast and strong apoptosis induction	58.5	1.3	45.2	78.7	5.5	14.7	37.9	19.8	42.3	1.6	47	41.9	44.1	14	42.2	2.7	rapidly induced strong apoptosis	101.0%	Early Apoptosis [A-V*/PI*] ([1]; 40 μM, 5 hrs): 26.9; Necrosis/ Late Apoptosis [A-V*/PI*] ([1]; 40 μM, 5 hrs): 0; Necrosis/ Late Apoptosis [A-V*/PI*] ([1]; 40 μM, 24 hrs): 2.6; Normal [A-V*/PI] ([1]; 40 μM, 24 hrs): 49.9; Early Apoptosis [A-V*/PI*] ([1]; 40 μM, 48 hrs): 22.7; Necrosis/ Late Apoptosis [A-V*/PI*] ([1]; 40 μM, 48 hrs): 7.7; cells apoptotic ([1]; 80 μM, 5 h): more than 50%; IC50 ([3]; Homo sapiens, Adipocyte): 52 µM; degree of histological changes at administration sites (subcutaneous connective and/or adipose tissue) [4, 6]: minimal or mild in degree; edema at administration sites [4, 6]: minimal or mild; fibrosis at administration sites [4, 6]: minimal or mild; haemorrhage at administration sites [4, 6]: minimal or mild; infiltrates of granulocytes at administration sites [4, 6]: minimal; infiltrates of mononuclear cells at administration sites [4, 6]: minimal to moderate; single cell death of inflammatory cells and/or connective tissue at administration sites [4, 6]: minimal; adipocytolysis (concluded from inflammatory reaction) ([4]; repetitive s.c. injection): causes adipocytolysis
CC(=O)N1CCN(c2ccc(OCC3COC(Cn4ccnc4)(c4ccc(Cl)cc4Cl)O3)cc2)CC1 (stereo not shown) [Test substance 5, Ketoconazole]	Apoptosis can be considered primary mode of cell death at the lower concentration range with necrosis taking place later at higher concentrations	26.5	1.4	72.1	19.5	2.6	77.9	9.1	3.8	87.1	2.2	63.8	22.7	17.9	59.4	44.9	36.6	caused apoptosis after 5 hrs at 60, 80, and 100 μM increasing over time	92.2%	precipitation in assay media [5]: generation of insoluble precipitates at higher concentrations; Early Apoptosis [A-V*/PI*] ([1]; 80 μM, 5 hrs): 34; Early Apoptosis [A-V*/PI*] ([1]; 80 μM, 48 hrs): 18.5; Early Apoptosis [A-V*/PI*] ([1]; 100 μM, 5 hrs): 23.6; Necrosis/ Late Apoptosis [A-V*/PI*] ([1]; 100 μM, 5 hrs): 3.1; Normal [A-V*/PI] ([1]; 100 μM, 5 hrs): 73.3; Early Apoptosis [A-V*/PI*] ([1]; 100 μM, 24 hrs): 16.9; Necrosis/ Late Apoptosis [A-V*/PI*] ([1]; 100 μM, 24 hrs): 82.6; Normal [A-V*/PI] ([1]; 100 μM, 24 hrs): 0.5; Early Apoptosis [A-V*/PI*] ([1]; 100 μM, 48 hrs): 36.9; Necrosis/ Late Apoptosis [A-V*/PI*] ([1]; 100 μM, 48 hrs): 52.5; Normal [A-V*/PI] ([1]; 100 μM, 48 hrs): 0.5; IC50 [3]: 78 µM
